Data taken from patent US11524940B1, “Inhibitors of cysteine proteases and methods of use thereof” (priority 2020, dated 2022).

Molecular target: SARS-CoV2 Mpro (Severe acute respiratory syndrome coronavirus 2 (2019-nCoV) (SARS-CoV-2), UniProt P0DTD1)
Experiment: COVID-19 (SARS-CoV2) Mpro enzymatic assay
Assay type: biochemical
Conditions: 25 nM Mpro, 25 μM substrate

Compared with `COc1cccc2[nH]c(C(=O)N3Cc4ccccc4C3C(=O)N[C@H](C#N)C[C@@H]3CCNC3=O)cc12` (single isomer, unassigned) [429A (Isomer 1)], `COc1cccc2[nH]c(C(=O)N[C@@H](CC3CC3)C(=O)N[C@@]3(C#N)C[C@@H]4CC[C@H]3[C@@H]3C(=O)NC(=O)[C@H]43)cc12` (single isomer, unassigned) [489 (Isomer 2)] is higher in IC50: 10 to 30 µM for the first, > 30 µM for the second. The first is the more potent here.

First: COc1cccc2[nH]c(C(=O)N3Cc4ccccc4C3C(=O)N[C@H](C#N)C[C@@H]3CCNC3=O)cc12 (single isomer, unassigned) [429A (Isomer 2)]
Second: CC1(C)CC(C[C@@H](C#N)NC(=O)[C@H](CC2CC2)NC(=O)c2cc3cccc(Cl)c3[nH]2)C(=O)N1 (single isomer, unassigned) [1053 (Isomer 4)]
The IC50 of the first is higher: > 30 µM for the first, < 2 µM for the second. The second is the more potent here.

In the case of `CC(C)(C)OC(=O)N1CCCCC12CCN(C(CC1CC1)C(=O)N[C@H](C#N)C[C@@H]1CCNC1=O)C2=O` (single isomer, unassigned) [473 (Isomer 1)], the IC50 is reported as > 30 µM.

Molecular target: 229E Mpro (Human coronavirus 229E (HCoV-229E), UniProt P0C6X1)
Sequence (P0C6X1 2966-3267 limits assumed): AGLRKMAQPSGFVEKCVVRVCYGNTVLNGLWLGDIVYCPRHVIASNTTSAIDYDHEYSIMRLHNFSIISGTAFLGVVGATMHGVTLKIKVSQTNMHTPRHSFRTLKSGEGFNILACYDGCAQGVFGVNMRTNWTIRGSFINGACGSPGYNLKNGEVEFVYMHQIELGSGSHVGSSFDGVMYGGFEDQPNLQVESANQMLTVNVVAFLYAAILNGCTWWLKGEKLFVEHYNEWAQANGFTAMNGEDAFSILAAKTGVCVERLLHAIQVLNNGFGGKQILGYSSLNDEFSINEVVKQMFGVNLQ
Experiment: 229E Mpro activity
Assay type: biochemical
Conditions: read-out: 229E Mpro EC50
Description: Compounds are assayed using standard methods to assess compound activity and IC50. […] The assay buffer contains 20 mM of Tris-HCl (pH 7.3), 100 mM of NaCl, 1 mM of EDTA, 5mM of TCEP and 0.1% BSA.

Going from `COc1cccc2[nH]c(C(=O)N3Cc4ccccc4C3C(=O)N[C@H](C#N)C[C@@H]3CCNC3=O)cc12` (single isomer, unassigned) [429A (Isomer 1)] to `COc1cccc2[nH]c(C(=O)N[C@@H](CC3CC3)C(=O)N[C@H](C#N)C[C@H]3C(=O)Nc4ccccc43)cc12` [Compound 932], the EC50 falls from > 30000 nM to < 2000 nM.

Going from `COc1cccc2[nH]c(C(=O)N3Cc4ccccc4C3C(=O)N[C@H](C#N)C[C@@H]3CCNC3=O)cc12` (single isomer, unassigned) [429A (Isomer 2)] to `N#Cc1cccc2[nH]c(C(=O)N[C@@H](CC3CC3)C(=O)N[C@H](C#N)C[C@@H]3CCCNC3=O)cc12` [Compound 858], the EC50 falls from > 30000 nM to < 2000 nM. The second is the more potent here.

First: CC(C)(C)OC(=O)N1CCCCC12CCN(C(CC1CC1)C(=O)N[C@H](C#N)C[C@@H]1CCNC1=O)C2=O (single isomer, unassigned) [473 (Isomer 1)]
Second: N#C[C@H](C[C@@H]1CCCNC1=O)NC(=O)[C@H](CC1CC1)NC(=O)c1ncc(Cl)[nH]1 [Compound 868]
The EC50 of the first is higher: > 30000 nM for the first, < 2000 nM for the second.

First: COc1cccc2[nH]c(C(=O)N[C@@H](CC3CC3)C(=O)N[C@@]3(C#N)C[C@@H]4CC[C@H]3[C@@H]3C(=O)NC(=O)[C@H]43)cc12 (single isomer, unassigned) [489 (Isomer 2)]
Second: COc1ccc(Br)c2[nH]c(C(=O)N[C@@H](CC3CC3)C(=O)N[C@H](C#N)C[C@@H]3CCCNC3=O)cc12 [Compound 846]
The EC50 of the first is higher: > 30000 nM for the first, < 2000 nM for the second. The second is the more potent here.

`N#C[C@H](C[C@@H]1CCCNC1=O)NC(=O)[C@H](CC1CC1)NC(=O)c1cc2c(Cl)c(F)ccc2[nH]1` [Compound 822, 4-chloro-N-[(1S)-2-[[(1S)-1-cyano-2-[(3S)-2-oxo-3-piperidyl]ethyl]amino]-1-(cyclopropylmethyl)-2-oxo-ethyl]-5-fluoro-1H-indole-2-carboxamide] and `N#C[C@H](C[C@@H]1CCCNC1=O)NC(=O)[C@H](CC1CC1)NC(=O)c1cc2c(Cl)ccc(F)c2[nH]1` [Compound 826] cannot be ordered by EC50: < 2000 nM for the first, < 2000 nM for the second.

`N#C[C@H](C[C@@H]1CCCNC1=O)NC(=O)[C@H](CC1CC1)NC(=O)c1cc2c(Cl)cc(F)cc2[nH]1` [Compound 824, 4-chloro-N-[(1S)-2-[[(1S)-1-cyano-2-[(3S)-2-oxo-3-piperidyl]ethyl]amino]-1-(cyclopropylmethyl)-2-oxo-ethyl]-6-fluoro-1H-indole-2-carboxamide] and `N#C[C@H](C[C@@H]1CCCNC1=O)NC(=O)[C@H](CC1CC1)NC(=O)c1cc2c(Cl)cc(Cl)cc2[nH]1` [Compound 840, 4,6-dichloro-N-[(1S)-2-[[(1S)-1-cyano-2-[(3S)-2-oxo-3-piperidyl]ethyl]amino]-1-(cyclopropylmethyl)-2-oxo-ethyl]-1H-indole-2-carboxamide] cannot be ordered by EC50: < 2000 nM for the first, < 2000 nM for the second.

Compared with `N#C[C@H](C[C@@H]1CCCNC1=O)NC(=O)[C@H](CC1CC1)NC(=O)c1cc2ccc(F)c(Cl)c2[nH]1` [Compound 828, 7-chloro-N-[(1S)-2-[[(1S)-1-cyano-2-[(3S)-2-oxo-3-piperidyl]ethyl]amino]-1-(cyclopropylmethyl)-2-oxo-ethyl]-6-fluoro-1H-indole-2-carboxamide], `N#C[C@H](C[C@@H]1CCCNC1=O)NC(=O)[C@H](CC1CC1)NC(=O)c1cc2ccc(F)c(Br)c2[nH]1` [Compound 850] is higher in EC50: < 2000 nM for the first, 10000 to 30000 nM for the second. The first is the more potent here.

`N#C[C@H](C[C@@H]1CCCNC1=O)NC(=O)[C@H](CC1CC1)NC(=O)c1cc2cc(F)cc(Cl)c2[nH]1` [Compound 830, 7-chloro-N-((S)-1-(((S)-1-cyano-2-((S)-2-oxopiperidin-3-yl)ethyl)amino)-3-cyclopropyl-1-oxopropan-2-yl)-5-fluoro-1H-indole-2-carboxamide] and `N#C[C@H](C[C@@H]1CCCNC1=O)NC(=O)[C@H](CC1CC1)NC(=O)c1cc2cc(Cl)cc(Cl)c2[nH]1` [Compound 842, 5,7-dichloro-N-[(1S)-2-[[(1S)-1-cyano-2-[(3S)-2-oxo-3-piperidyl]ethyl]amino]-1-(cyclopropylmethyl)-2-oxo-ethyl]-1H-indole-2-carboxamide] cannot be ordered by EC50: < 2000 nM for the first, < 2000 nM for the second.

`N#C[C@H](C[C@@H]1CCCNC1=O)NC(=O)[C@H](CC1CC1)NC(=O)c1cc2c(F)ccc(Cl)c2[nH]1` [Compound 832, 7-chloro-N-[(1S)-2-[[(1S)-1-cyano-2-[(3S)-2-oxo-3-piperidyl]ethyl]amino]-1-(cyclopropylmethyl)-2-oxo-ethyl]-4-fluoro-1H-indole-2-carboxamide] and `N#C[C@H](C[C@@H]1CCCNC1=O)NC(=O)[C@H](CC1CC1)NC(=O)c1cc2c(F)ccc(Br)c2[nH]1` [Compound 854] cannot be ordered by EC50: < 2000 nM for the first, < 2000 nM for the second.

`N#C[C@H](C[C@@H]1CCCNC1=O)NC(=O)[C@H](CC1CC1)NC(=O)c1cc2c(F)cc(Cl)cc2[nH]1` [Compound 838, 6-chloro-N-[(1S)-2-[[(1S)-1-cyano-2-[(3S)-2-oxo-3-piperidyl]ethyl]amino]-1-(cyclopropylmethyl)-2-oxo-ethyl]-4-fluoro-1H-indole-2-carboxamide] and `COc1cc(Cl)cc2[nH]c(C(=O)N[C@@H](CC3CC3)C(=O)N[C@H](C#N)C[C@@H]3CCCNC3=O)cc12` [Compound 906, 6-chloro-N-[(1S)-2-[[(1S)-1-cyano-2-[(3S)-2-oxo-3-piperidyl]ethyl]amino]-1-(cyclopropylmethyl)-2-oxo-ethyl]-4-methoxy-1H-indole-2-carboxamide] cannot be ordered by EC50: < 2000 nM for the first, < 2000 nM for the second.

`N#C[C@H](C[C@@H]1CCCNC1=O)NC(=O)[C@H](CC1CC1)NC(=O)c1[nH]c2cc(Br)ccc2c1F` [Compound 848, 6-bromo-N-[(1S)-2-[[(1S)-1-cyano-2-[(3S)-2-oxo-3-piperidyl]ethyl]amino]-1-(cyclopropylmethyl)-2-oxo-ethyl]-3-fluoro-1H-indole-2-carboxamide] and `N#C[C@H](C[C@@H]1CCCNC1=O)NC(=O)[C@H](CC1CC1)NC(=O)c1cc2cc(F)cc(Br)c2[nH]1` [Compound 852, 7-bromo-N-((S)-1-(((S)-1-cyano-2-((S)-2-oxopiperidin-3-yl)ethyl)amino)-3-cyclopropyl-1-oxopropan-2-yl)-5-fluoro-1H-indole-2-carboxamide] cannot be ordered by EC50: < 2000 nM for the first, < 2000 nM for the second.

`N#C[C@H](C[C@@H]1CCCNC1=O)NC(=O)[C@H](CC1CC1)NC(=O)c1cc2c(C(F)(F)F)cccc2[nH]1` [Compound 856, N-((S)-1-(((S)-1-cyano-2-((S)-2-oxopiperidin-3-yl)ethyl)amino)-3-cyclopropyl-1-oxopropan-2-yl)-4-(trifluoromethyl)-1H-indole-2-carboxamide] and `N#Cc1ccc2[nH]c(C(=O)N[C@@H](CC3CC3)C(=O)N[C@H](C#N)C[C@@H]3CCCNC3=O)cc2c1` [Compound 860] cannot be ordered by EC50: < 2000 nM for the first, < 2000 nM for the second.

`N#Cc1ccc2cc(C(=O)N[C@@H](CC3CC3)C(=O)N[C@H](C#N)C[C@@H]3CCCNC3=O)[nH]c2c1` [Compound 862, 6-cyano-N-[(1S)-2-[[(1S)-1-cyano-2-[(3S)-2-oxo-3-piperidyl]ethyl]amino]-1-(cyclopropylmethyl)-2-oxo-ethyl]-1H-indole-2-carboxamide] and `N#C[C@H](C[C@@H]1CCCNC1=O)NC(=O)[C@H](CC1CC1)NC(=O)c1ccc(Cl)[nH]1` [Compound 864] cannot be ordered by EC50: < 2000 nM for the first, < 2000 nM for the second.

`N#C[C@H](C[C@@H]1CCCNC1=O)NC(=O)[C@H](CC1CC1)NC(=O)c1cc(Cl)c(Cl)[nH]1` [Compound 866, 4,5-dichloro-N-[(1S)-2-[[(1S)-1-cyano-2-[(3S)-2-oxo-3-piperidyl]ethyl]amino]-1-(cyclopropylmethyl)-2-oxo-ethyl]-1H-pyrrole-2-carboxamide] and `COc1ccc(Cl)c2[nH]c(C(=O)N[C@@H](CC3CC3)C(=O)N[C@H](C#N)C[C@@H]3CCCNC3=O)cc12` [Compound 898, 7-chloro-N-[(1S)-2-[[(1S)-1-cyano-2-[(3S)-2-oxo-3-piperidyl]ethyl]amino]-1-(cyclopropylmethyl)-2-oxo-ethyl]-4-methoxy-1H-indole-2-carboxamide] cannot be ordered by EC50: < 2000 nM for the first, < 2000 nM for the second.

`COCCOCCOc1cccc2[nH]c(C(=O)N[C@@H](CC(C)(C)C)C(=O)N[C@H](C#N)C[C@@H]3CCCNC3=O)cc12` [Compound 876, N-[1-[[1-cyano-2-[(3S)-2-oxo-3-piperidyl]ethyl]carbamoyl]-3,3-dimethyl-butyl]-4-[2-(2-methoxyethoxy)ethoxy]-1H-indole-2-carboxamide] and `COCCOCCOc1cccc2[nH]c(C(=O)N[C@@H](CC3CC3)C(=O)N[C@H](C#N)C[C@@H]3CCCNC3=O)cc12` [Compound 1057, N-[(1S)-2-[[(1S)-1-cyano-2-[(3S)-2-oxo-3-piperidyl]ethyl]amino]-1-(cyclopropylmethyl)-2-oxo-ethyl]-4-[2-(2-methoxyethoxy)ethoxy]-1H-indole-2-carboxamide] cannot be ordered by EC50: < 2000 nM for the first, < 2000 nM for the second.

`COc1ccc(Cl)c2[nH]c(C(=O)N[C@@H](CC(C)(C)C)C(=O)N[C@H](C#N)C[C@@H]3CCNC3=O)cc12` [Compound 892] and `COc1cc(Cl)c2[nH]c(C(=O)N[C@@H](CC(C)(C)C)C(=O)N[C@H](C#N)C[C@@H]3CCNC3=O)cc2c1` [Compound 894] cannot be ordered by EC50: < 2000 nM for the first, < 2000 nM for the second.

Compared with `COc1cc(Cl)c2[nH]c(C(=O)N[C@@H](CC3CC3)C(=O)N[C@H](C#N)C[C@@H]3CCCNC3=O)cc2c1` [Compound 900, 7-chloro-N-((S)-1-(((S)-1-cyano-2-((S)-2-oxopiperidin-3-yl)ethyl)amino)-3-cyclopropyl-1-oxopropan-2-yl)-5-methoxy-1H-indole-2-carboxamide], `CN(C(=O)c1cc2cccc(Cl)c2[nH]1)[C@@H](CC1CC1)C(=O)N[C@H](C#N)C[C@@H]1CCCNC1=O` [Compound 1137] is higher in EC50: < 2000 nM for the first, 2000 to 10000 nM for the second. The first is the more potent here.

For `COc1cc(Cl)cc2[nH]c(C(=O)N[C@@H](CC(C)(C)C)C(=O)N[C@H](C#N)C[C@@H]3CCCNC3=O)cc12` [Compound 1149], the EC50 was < 2000 nM.
